Several values for one entry are separate records, joined by “and”; a condition that tells them apart may be missing. Equal values may be shown once.
Tested on: collagenase derived from Clostridium histolyticum
Assay: Inhibition of collagenase (fluorescence assay with fluorogenic peptide substrate)
Assay type: biochemical
Conditions: for Average % inhibition: average of replicates; for Inhibition Rate of collagenase (%): individual replicate
Description: The collagenase inhibitory activity of aqueous and ethanol extracts of Cornus officinalis Sieb. et Zucc., Potentilla glabra Lodd. var. mandshurica (Maxim.) Hand.-Mazz, Amomum kravanh Pierre ex Gagnep, and Bombax ceiba Linnaeus were evaluated. The sample mixture (10 μL), 10 μg/mL of the enzyme (collagenase derived from Clostridium histolyticum) and 50 mM Tricine buffer (pH 7.5), was added to a 96-well microtiter plate. […] After a 10 minute incubation at 37° C., the substrate solution ((7-methoxycoumarin-4-yl)acetyl-L-prolyl-L-leucylglycyl-L-leucyl-[Nβ-(2,4-dinitrophenyl)-L-2,3-diaminopropionyl]-Lalanyl-L-arginine amide) was added to obtain a final concentration of 10 μM, and was allowed to react. The fluorescence values were measured after 0 minutes and 30 minutes incubation at 37° C., at an excitation of 320 nm and an emission of 405 nm, using a fluorescence plate reader (EnSpire, Perkin Elmer, Inc., Japan). EGCG was used as a positive control. The average rates of inhibition can also be appreciated with reference to the Figures.

`O=C(O[C@@H]1Cc2c(O)cc(O)cc2O[C@@H]1c1cc(O)c(O)c(O)c1)c1cc(O)c(O)c(O)c1` [EGCG, epigallocatechin gallate] showed an Average % inhibition (concentration 31.25 μg/ml) of 19.10%, an Average % inhibition (concentration 62.5 μg/ml) of 29.58% and an Average % inhibition (concentration 125 μg/ml) of 39.38%. For the same molecule, the Average % inhibition (concentration 250 μg/ml) was 54.90%, the Average % inhibition (concentration 500 μg/ml) was 80.36% and the Average % inhibition (concentration 1000 μg/ml) was 106.38%. For the same molecule, the “Inhibition Rate of collagenase (%)” value (concentration 31.25 μg/ml) was 18.13% and 16.96% and 22.22%, the “Inhibition Rate of collagenase (%)” value (concentration 62.5 μg/ml) was 31.14% and 27.49% and 30.12% and the “Inhibition Rate of collagenase (%)” value (concentration 125 μg/ml) was 41.37% and 35.23% and 41.52%. For the same molecule, the “Inhibition Rate of collagenase (%)” value (concentration 250 μg/ml) was 52.78% and 57.02%, the “Inhibition Rate of collagenase (%)” value (concentration 500 μg/ml) was 79.53% and 80.99% and 80.56% and the “Inhibition Rate of collagenase (%)” value (concentration 1000 μg/ml) was 107.75% and 106.58% and 104.82%.
